Assay results taken from patent publication US10150751B2 (Merck Sharp & Dohme Corp., priority 2014, dated 2018).

Tests used:
[1] = target: hOX1R (orexin-1 receptor) (Homo sapiens, UniProt O43613); experiment: FLIPR Ca2+ flux assay, hOX1R; type: cell-based; conditions: CHO cells expressing the orexin-1 receptor (head: hOX1R; method: rat); agonist 70 pM Ala-6,12 orexin-A
[2] = target: human orexin-2 receptor (Homo sapiens (Human), UniProt O43614); experiment: FLIPR Ca2+ flux assay, hOX2R; type: cell-based; conditions: CHO cells expressing the human orexin-2 receptor; agonist 70 pM Ala-6,12 orexin-A
Method: The utility of the compounds in accordance with the present invention as orexin receptor OX1R and/or OX2R antagonists may be readily determined without undue experimentation by methodology well known in the art, including the “FLIPR Ca^2+ Flux Assay” (Okumura et al., Biochem. Biophys. Res. Comm. 280:976-981, 2001). In a typical experiment the OX1 and OX2 receptor antagonistic activity of the compounds of the present invention was determined in accordance with the following experimental method. For intracellular calcium measurements, Chinese hamster ovary (CHO) cells expressing the rat orexin-1 receptor or the human orexin-2 receptor, are grown in Iscove's modified DMEM containing 2 mM L-glutamine, […], 1% hypoxanthine-thymidine supplement, 100 U/ml penicillin, 100 μg/ml streptomycin and 10% heat-inactivated fetal calf serum (FCS). The cells are seeded at 20,000 cells/well into Becton-Dickinson black 384-well clear bottom sterile plates coated with poly-D-lysine. All reagents were from GIBCO-Invitrogen Corp. The seeded plates are incubated overnight at 37° C. and 5% CO2. Ala-6,12 human orexin-A as the agonist is prepared as a 1 mM stock solution in 1% bovine serum albumin (BSA) and diluted in assay buffer (HBSS containing 20 mM HEPES, 0.1% BSA and 2.5 mM probenecid, pH7.4) for use in the assay at a final concentration of 70pM. Test compounds are prepared as 10 mM stock solution in DMSO, then diluted in 384-well plates, first in DMSO, then assay buffer. On the day of the assay, cells are washed 3 times with 100 μl assay buffer and then incubated for 60 min (37° C., 5% CO2) in 60 μl assay buffer containing 1 μM Fluo-4AM ester, 0.02% pluronic acid, and 1% BSA. The dye loading solution is then aspirated and cells are washed 3 times with 100 μl assay buffer. 30 μl of that same buffer is left in each well. Within the Fluorescent Imaging Plate Reader (FLIPR, Molecular Devices), test compounds are added to the plate in a volume of 25 μl, incubated for 5 min and finally 25 μl of agonist is added. Fluorescence is measured for each well at 1 second intervals for 5 minutes and the height of each fluorescence peak is compared to the height of the fluorescence peak induced by 70 pM Ala-6,12 orexin-A with buffer in place of antagonist. For each antagonist, IC50 value (the concentration of compound needed to inhibit 50% of the agonist response) is determined. Alternatively, compound potency can be assessed by a radioligand binding assay (described in Bergman et. al. Bioorg. Med. Chem. Lett. 2008, 18, 1425-1430) in which the inhibition constant (Ki) is determined in membranes prepared from CHO cells expressing either the OX1 or OX2 receptor. The intrinsic orexin receptor antagonist activity of a compound which may be used in the present invention may be determined by these assays.

Chain of human orexin-2 receptor (O43614 whole entry): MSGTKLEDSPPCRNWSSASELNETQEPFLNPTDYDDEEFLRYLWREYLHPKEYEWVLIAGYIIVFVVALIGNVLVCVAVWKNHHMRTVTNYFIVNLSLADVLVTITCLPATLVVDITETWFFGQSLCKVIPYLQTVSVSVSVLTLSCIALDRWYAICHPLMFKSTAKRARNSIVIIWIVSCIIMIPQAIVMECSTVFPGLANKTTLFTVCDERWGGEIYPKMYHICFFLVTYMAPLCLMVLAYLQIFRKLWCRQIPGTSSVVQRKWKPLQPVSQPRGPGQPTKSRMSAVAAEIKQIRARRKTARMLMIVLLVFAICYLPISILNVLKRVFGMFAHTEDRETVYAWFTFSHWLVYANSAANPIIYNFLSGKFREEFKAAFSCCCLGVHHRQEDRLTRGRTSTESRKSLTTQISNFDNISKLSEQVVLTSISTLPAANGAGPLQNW

Row | IC50 [1] [µM] | IC50 [2] [µM] | SMILES
1 | 6.75 | 0.0297 | COC(=O)c1c(OC)ccnc1N[C@@H]1C[C@@H](C)N(C(=O)c2ccccc2-n2nccn2)C1 [Example 32, Methyl 2-(((3R,5R)-1-(2-(2H-1,2,3-triazol-2-yl)benzoyl)-5-methylpyrrolidin-3-yl)amino)-4-methoxynicotinate]
2 | 2.25 | 0.136 | C[C@@H]1C[C@@H](N(C)c2cc(Br)ccn2)CN1C(=O)c1ccccc1-n1nccn1 [Example 35, (2-(2H-1,2,3-Triazol-2-yl)phenyl)((2R,4R)-4-((4-bromopyridin-2-yl)(methyl)amino)-2-methylpyrrolidin-1-yl)methanone]
3 | > 10 | 0.0408 | COc1c(C#N)ccnc1N[C@@H]1C[C@@H](C)N(C(=O)c2ccccc2-n2nccn2)C1 [Example 39, 2-(((3R,5R)-1-(2-(2H-1,2,3-Triazol-2-yl)benzoyl)-5-methylpyrrolidin-3-yl)amino)-3-methoxyisonicotinonitrile]
4 | 10 | 0.5 | COc1cccnc1N[C@@H]1C[C@@H](C)N(C(=O)c2ccccc2-c2noc(C)n2)C1 [Example 42, ((2R,4R)-4-((3-Methoxypyridin-2-yl)amino)-2-methylpyrrolidin-1-yl)(2-(5-methyl-1,2,4-oxadiazol-3-yl)phenyl)methanone]

Further lines, the molecule ahead of its results:

Row | SMILES | IC50 [1] [µM] | IC50 [2] [µM]
5 | CCOC(=O)c1c(OC)ccnc1N[C@@H]1C[C@@H](C)N(C(=O)c2ccccc2-n2nccn2)C1 [Example 33, Ethyl 2-(((3R,5R)-1-(2-(2H-1,2,3-triazol-2-yl)benzoyl)-5-methylpyrrolidin-3-yl)amino)-4-methoxynicotinate] | 4.07 | 0.0311
6 | CCOc1ccnc(N[C@@H]2C[C@@H](C)N(C(=O)c3ccccc3-n3nccn3)C2)c1C(=O)OC [Example 34, Methyl 2-(((3R,5R)-1-(2-(2H-1,2,3-triazol-2-yl)benzoyl)-5-methylpyrrolidin-3-yl)amino)-4-ethoxynicotinate] | > 10 | 0.0662
7 | Cc1c(C#N)ccnc1N[C@@H]1C[C@@H](C)N(C(=O)c2ccccc2-n2nccn2)C1 [Example 36, 2-(((3R,5R)-1-(2-(2H-1,2,3-Triazol-2-yl)benzoyl)-5-methylpyrrolidin-3-yl)amino)-3-methylisonicotinonitrile] | 3.35 | 0.0236
8 | Cc1c(C#N)ccnc1N(C)[C@@H]1C[C@@H](C)N(C(=O)c2ccccc2-n2nccn2)C1 [Example 37, 2-(((3R,5R)-1-(2-(2H-1,2,3-Triazol-2-yl)benzoyl)-5-methylpyrrolidin-3-yl)(methyl)amino)-3-methylisonicotinonitrile] | > 10 | 3.21
9 | COC(=O)c1c(C#N)ccnc1N[C@@H]1C[C@@H](C)N(C(=O)c2ccccc2-n2nccn2)C1 [Example 38, Methyl 2-(((3R,5R)-1-(2-(2H-1,2,3-triazol-2-yl)benzoyl)-5-methylpyrrolidin-3-yl)amino)-4-cyanonicotinate] | 1.55 | 0.0146
10 | COc1cccnc1N[C@@H]1C[C@@H](C)N(C(=O)c2nccnc2-n2cccn2)C1 [Example 43, (3-(1H-Pyrazol-1-yl)pyrazin-2-yl)((2R,4R)-4-((3-methoxypyridin-2-yl)amino)-2-methylpyrrolidin-1-yl)methanone] | 10 | 1.5
11 | COc1cccnc1N[C@@H]1C[C@@H](C)N(C(=O)c2nccnc2-c2ccccn2)C1 [Example 44, ((2R,4R)-4-((3-Methoxypyridin-2-yl)amino)-2-methylpyrrolidin-1-yl)(3-(pyridin-2-yl)pyrazin-2-yl)methanone] | 10 | 2.37
